The text below walks through data of US20060004102A1, “Polymorphic forms of nateglinide” (priority 2004, published 2006).

For data set [1] the following is noted: DSC, according to U.S. Pat. No. 5,463,116; cited from earlier work.
Data set [2] is described as follows: Solubility of nateglinide in solvents. It counts as physicochemical. As to conditions: mixture of methanol, water and a base (source of ammonium ions).
The conditions of data set [3]: cited from earlier work.

Structures can show the parent of a compound that is named as a salt. Where two headings read alike, the source gives them in different places.

`CC(C)[C@H]1CC[C@H](C(=O)N[C@H](Cc2ccccc2)C(=O)O)CC1` [B-type, nateglinide]: the “stability of crystal form during grinding” value in data set [1] was “unstable and susceptible to change during grinding”.

In the case of `CC(C)[C@H]1CC[C@H](C(=O)N[C@H](Cc2ccccc2)C(=O)O)CC1` [Form Phi, nateglinide ammonium salt], the solubility entry in data set [2] is recorded as “relatively insoluble”.

`CC(C)[C@H]1CC[C@H](C(=O)N[C@H](Cc2ccccc2)C(=O)O)CC1` [nateglinide, (−)-N-(trans-4-isoporpylcyclohexanecarbonyl)-D-Phenylalanine]: the solubility entry in data set [3] (in acetonitrile) is reported as “sparingly soluble”; in data set [3] (in chloroform), “freely soluble”; in data set [3] (in ethanol), “freely soluble”; in data set [3] (in ether), “soluble”; in data set [3] (in methanol), “freely soluble”; in data set [3] (in octanol), “sparingly soluble”. Moreover, the solubility entry in data set [3] (in water) is on record as “practically insoluble”; in data set [3] (in water, listed as Nateglinide), “insoluble”.
